Assay results: patent US20120322728A1, “PPAR-SPARING THIAZOLIDINEDIONES AND COMBINATIONS FOR THE TREATMENT OF DIABETES MELLITUS AND OTHER METABOLIC DISEASES” (Metabolic Solutions Development Company, LLC, priority 2009, published 2012)

What was measured:
[1] = test system: BAT precursor cells; assay: BAT differentiation: UCP1 protein by Western blot; assay type: cell-based, mice; settings: BAT precursor cells treated with 0.1 to 10 μM for 7 days
Method: Precursors of BAT are isolated from the interscapular adipose pad of either normal or diabetic mice and cultured in vitro as described below based on the modifications recited in Petrovic N, Shabalina I G, Timmons J A, Cannon B, Nedergaard J. Am. J. Physiol. Endocrinol. Metab. 295:E287-E296, 2008, hereby incorporated by reference.
The brown fat pads are pooled and minced, digested for 45 minutes in isolation buffer containing 0.15% (wt/vol) collagenase. The cell suspension is filtered through a 100 μm nylon filter and centrifuged at 200×g for 5 minutes. […]
Cells are then treated with the compounds, compound salts, or co-crystals thereof being assayed for BAT differentiation. […] The development of the BAT phenotype is assessed by direct measure of the uncoupling protein 1 (UCP1), which is emblematic of brown adipose cells.
Following treatment of the cells, the growth medium is aspirated, rinsed with PBS, and lysed with KHM buffer containing 1% Igepal CA-630, and a protease inhibitor cocktail. The lysate is centrifuged at 8,000×g for 5 minutes (4° C.), the supernatant containing the cell lysate is collected and total protein analyzed using the BCA method. […] Densitometry is conducted on the scanned films using ImageJ software and analyzed using GraphPad Prism software. […]

[2] = test system: PGC-1α; assay: Expression of PGC-1α mRNA in precursor BAT cells with norepinephrine (quantitative PCR); assay type: cell-based, mice; settings: for PGC-1α mRNA in the presence of norepinephrine: 3 μM compound for seven days, then 1 μM norepinephrine for 2 hours
Method: Another example of the ability of augmented signaling between cyclic nucleotides and compounds of Formula I is shown by the effect on expression of PGC-1a, a known regulator of mitochondrial biogenesis. Increased numbers of mitochondria are predictive of utility for the reduction of body weight.
Precursor BAT cells were isolated as described above and treated with or without 3 μM compounds: 1.] Compound A: 5-(4-(2-(5-ethylpyridin-2-yl)-2-oxoethoxy)benzyl)-1,3-thiazolidine-2,4-dione; 2.] Compound C: 5-(4-(2R)-2-(5-ethylpyridin-2-yl)-2-hydroxyethoxyy)benzyl)-1,3-thiazolidine-2,4-dione; or Compound B: 5-(4-(2-(3-methoxyphenyl)-2-oxoethoxy)benzyl)-1,3-thiazolidine-2,4-dione for seven days followed by treatment with 1 μM norepinephrine for 2 hours. Total RNA was isolated from the cells and the RNA message (mRNA) for PGC-1α was measured by quantitative polymerase chain reactions.

[3] = AUC of compound related materials after oral dosing of Compound B forms; assay type: in vivo; settings: 250 mg free acid equivalents, formulated tablets, N=4 cynomolgus monkeys
Method: Referring to FIG. 8, the area under the curve (AUC) of compound related materials was compared following dosing of 250 mg of Compound B as powder in capsules of free acid (PIC), formulated tablets of micronized free acid, or formulated tablets of the Na or K salt of Compound B given at the same free acid equivalents. (N=4 cynomolgus monkeys). The formulated, compressed tablet also contained in each case approximately 40.5% lactose, 16.8% microcrystalline cellulose, 1.9% Croscarmellose sodium, 0.5% colloidal silicon dioxide, and 0.9% magnesium stearate.

[4] = Bioavailability of sodium salt of Compound A, crossover, oral capsule versus iv injection; assay type: in vivo; settings: 90 mg free base equivalents, 4 male cynomolgus monkeys
Method: The monkeys fasted overnight and were dosed by oral gavage washed down with 10 ml tap water. Blood samples were taken at 0.25, 0.5, 1, 2, 3, 4, 6, 9, 12, 24, and 48 hours after a single dosage was administered and assayed for drug related materials with a LCMS assay using an internal standard. 90 mg of drug was put in 00 gelatin capsules containing 90 mg of free base equivalents. This was compared to an iv injection of 2 ml/kg and 45 mg of free base solution in 50% hydroxypropyl b-cyclodextran. The absolute availability versus an iv injection was determined for both parent compound and major metabolite.

[5] = test system: diabetic KKAy mouse; assay: Blood glucose lowering in diabetic KKAy mouse; assay type: in vivo; settings: diabetic KKAy mice (N=6), gavage once daily, plasma glucose after 4 daily doses
Method: In these experiments, free base or sodium salt was given to diabetic KKAy mice (N=6) and blood glucose was measured after 4 days of daily treatment at the doses indicated. KKAy mice, 8-12 weeks of age, were given the doses of the compounds according to the dosages on the X axis of FIG. 9. The compounds were given by gavage once daily at 10 mg/kg. On the fifth day (after 4 daily doses at the levels show) a blood sample was taken to measure plasma glucose.

CCc1ccc(C(=O)COc2ccc(CC3SC(=O)NC3=O)cc2)nc1 (stereo not shown) [5-(4-(2-(5-ethylpyridin-2-yl)-2-oxoethoxy)benzyl)-1,3-thiazolidine-2,4-dione]
amount of UCP1 (Western blot) [1]: dose-dependent increase

NC[C@H](O)c1ccc(O)c(O)c1 [norepinephrine, reference compound]
PGC-1α mRNA, norepinephrine alone ([2]; absence of compound (control), 1 μM norepinephrine for 2 hours): did not produce an increase

CCc1ccc(C(=O)COc2ccc(CC3SC(=O)NC3=O)cc2)nc1 (stereo not shown) [Compound A, 5-(4-(2-(5-ethylpyridin-2-yl)-2-oxoethoxy)benzyl)-1,3-thiazolidine-2,4-dione]
PGC-1α mRNA in the presence of norepinephrine [2]: increase

COc1cccc(C(=O)COc2ccc(CC3SC(=O)[N-]C3=O)cc2)c1.[Na+] (stereo not shown) [sodium salt of Compound B, Sodium 5-{4-[2-(3-methoxyphenyl)-2-oxoethoxy]benzyl}-2,4-dioxo-1,3-thiazolidin-3-ide]
bioavailability (AUC of compound related materials) versus free acid [3]: significantly higher bioavailability

COc1cccc(C(=O)COc2ccc(CC3SC(=O)NC3=O)cc2)c1 (stereo not shown) [Compound B, 5-(4-(2-(3-methoxyphenyl)-2-oxoethoxy)benzyl)-1,3-thiazolidine-2,4-dione]
PGC-1α mRNA in the presence of norepinephrine [2]: increase

CCc1ccc(C(=O)COc2ccc(CC3SC(=O)[N-]C3=O)cc2)nc1.[Na+] (stereo not shown) [sodium salt of Compound A, Sodium 5-{4-[2-(5-ethylpyridin-2-yl)-2-oxoethoxy]benzyl}-2,4-dioxo-1,3-thiazolidin-3-ide]
absolute bioavailability of major metabolite versus free base [4]: significantly higher bioavailability | absolute bioavailability of parent compound versus free base [4]: significantly higher bioavailability | lowering blood glucose [5]: excellent dose response

CCc1ccc([C@@H](O)COc2ccc(CC3SC(=O)NC3=O)cc2)nc1 (stereo partly shown) [Compound C]
PGC-1α mRNA in the presence of norepinephrine [2]: increase

COc1cccc(C(=O)COc2ccc(CC3SC(=O)[N-]C3=O)cc2)c1.[K+] (stereo not shown) [potassium salt of Compound B, Potassium 5-{4-[2-(3-methoxyphenyl)-2-oxoethoxy]benzyl}-2,4-dioxo-1,3-thiazolidin-3-ide]
bioavailability (AUC of compound related materials) versus free acid [3]: significantly higher bioavailability
